Results from ChEMBL document CHEMBL1141047, “4-Phenyl-1,2,3,6-tetrahydropyridine, an excellent fragment to improve the potency of PARP-1 inhibitors” (Bioorg Med Chem Lett, 2005).

Target: Poly [ADP-ribose] polymerase 1 (Homo sapiens, UniProt P09874)
Sequence (P09874 whole entry): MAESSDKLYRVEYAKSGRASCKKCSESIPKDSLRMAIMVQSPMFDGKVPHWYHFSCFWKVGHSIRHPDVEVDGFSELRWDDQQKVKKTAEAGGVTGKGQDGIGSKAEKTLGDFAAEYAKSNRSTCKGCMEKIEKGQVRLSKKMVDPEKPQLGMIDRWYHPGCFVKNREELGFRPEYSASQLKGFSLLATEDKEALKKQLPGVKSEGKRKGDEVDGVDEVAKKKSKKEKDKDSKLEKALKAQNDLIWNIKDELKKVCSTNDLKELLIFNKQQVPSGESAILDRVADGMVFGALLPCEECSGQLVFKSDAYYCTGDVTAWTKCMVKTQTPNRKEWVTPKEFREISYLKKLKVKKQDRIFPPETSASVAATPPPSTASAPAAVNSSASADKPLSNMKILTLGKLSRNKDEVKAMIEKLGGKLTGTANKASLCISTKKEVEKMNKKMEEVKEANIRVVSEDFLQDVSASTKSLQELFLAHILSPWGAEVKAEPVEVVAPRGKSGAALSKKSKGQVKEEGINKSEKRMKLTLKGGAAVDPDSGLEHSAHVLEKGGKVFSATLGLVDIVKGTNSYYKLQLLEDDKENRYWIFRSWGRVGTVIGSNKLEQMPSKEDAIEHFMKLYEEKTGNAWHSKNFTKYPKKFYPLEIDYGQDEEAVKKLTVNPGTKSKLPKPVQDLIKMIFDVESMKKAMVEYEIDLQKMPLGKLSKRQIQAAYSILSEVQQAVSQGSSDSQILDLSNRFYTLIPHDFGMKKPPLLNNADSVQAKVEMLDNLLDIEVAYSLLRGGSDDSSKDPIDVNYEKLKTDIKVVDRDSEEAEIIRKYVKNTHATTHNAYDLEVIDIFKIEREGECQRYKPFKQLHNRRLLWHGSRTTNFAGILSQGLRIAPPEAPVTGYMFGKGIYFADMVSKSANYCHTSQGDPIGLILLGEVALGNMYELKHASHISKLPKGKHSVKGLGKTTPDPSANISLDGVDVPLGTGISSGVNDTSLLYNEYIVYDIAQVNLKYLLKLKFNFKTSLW
Description: In vitro inhibitory concentration against Poly(ADP-ribose) polymerase 1

Row | SMILES | IC50
1 | CC1=NC(=O)C2CSCCC2N1 (centres undefined) | 0.467 µM
2 | O=c1[nH]c2cc(CN3CCOCC3)ccc2c2ccccc12 | 0.023 µM
3 | CC1(C)CCC2NC(CCCN3CC=C(c4ccccc4)CC3)=NC(=O)C2C1 (centres undefined) | > 10 µM
4 | O=c1[nH]c2ccc(CCCCN3CC=C(c4ccccc4)CC3)cc2c2ccccc12 | 0.119 µM
5 | Oc1nnc(CCCCCN2CCOCC2)c2ccccc12 | 0.119 µM
6 | O=C1N=C(CCCN2CC=C(c3ccccc3)CC2)NC2CCNCC12 (centres undefined) | 8.6 µM
7 | CC1CCC2NC(CCCN3CC=C(c4ccccc4)CC3)=NC(=O)C2C1 (centres undefined) | 0.274 µM
8 | O=c1[nH]nc(CCCCN2CCOCC2)c2ccccc12 | 0.95 µM
9 | O=C1N=C(CCCN2CC=C(c3ccccc3)CC2)NC2CCOCC12 (centres undefined) | 0.2 µM
10 | O=C1N=C(CCCN2CC=C(c3ccccc3)CC2)NC2CCCCCC12 (centres undefined) | 0.495 µM
11 | CN1CCC2NC(CCCN3CC=C(c4ccccc4)CC3)=NC(=O)C2C1 (centres undefined) | 6.1 µM
12 | O=C1NC(CCCN2CC=C(c3ccccc3)CC2)=NC2CCCC12 (centres undefined) | 0.249 µM
13 | O=C1N=C(CCCN2CC=C(c3ccccc3)CC2)NC2CCCCC12 (centres undefined) | 0.02 µM
14 | O=C1NC(CCCN2CC=C(c3ccccc3)CC2)=NC2CCSCC12 (centres undefined) | 0.0089 µM
